According to patent EP0103381B1, “Substituted anthra(1,9-cd)pyrazol-6(2H)-ones” (WARNER-LAMBERT COMPANY, priority 1982, dated 1984):
Counter-ions that a name gives are not always drawn.

Tests used:
[1] = test system: HCT-8 (human colon adenocarcinoma) cells; assay: in vitro activity against human colon adenocarcinoma (HCT-8), cell count; assay type: cell-based; conditions: HCT-8 human colon adenocarcinoma cells, 60-65 hrs incubation with compound, Coulter counter cell count as percentage of controls; read-out: ID50 (the source's name)
Procedure: HCT-8 (human colon adenocarcinoma) cells are trypsinized using Trypsin-EDTA. A single cell suspension is achieved by passing the cells through a 26 gauge needle with a 20 cc syringe. A cell suspension is prepared using RPMI 1640 growth medium (available from Gibco Laboratories) +10% fetal calf serum +50 µg/ml garamycin with a cell concentration of approximately 30,000 cells/ml. The cell suspension is dispensed in Linbro 24-well plates; 1 ml/well. The plates are incubated for approximately 48 hrs at 37°C in a 5% C02 atmosphere. At this time test compounds are added in the appropriate concentration. Five µl of the 200 µg/ml stock solution is added to each well in a primary test. Ten pl of the appropriate dilution is added to each well for a titration test. The plates are reincubated an additional 60-65 hrs at 37°C in a 5% C02 atmosphere. The test is read by lysing the cells using a mix of cationic surfactant, glacial acetic acid and sodium chloride. […] of the lysed cell suspension from each well is added to 8 ml of diluent. Each sample is read with a Coulter counter (ZBI model). The activity of each sample is measured as a percentage of the controls and the data is reported as ID50, that is the molar quantity of drug required to kill 50% of the tumor cells.

Aerobacter aerogenes = assay: agar plate paper-disc inhibition zone screening; assay type: cell-based; conditions: Klebsiella aerogenes, read-out: Inhibition Zone Diameter mm (Dose mg/ml) A. Aerogenes; for zone of inhibition at 3000 µg/mL: Dose 3.0 mg/ml; for zone of inhibition at 500 µg/mL: Dose 0.5 mg/ml
Method in brief: (§1)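 Read-out: diameter (mm) of the inhibition zone around 12.7 mm paper discs after overnight (18-20 h) incubation at 37°C. Discs carried compound at 3,000-10 mcg/ml in alcohol, DMSO or DMF, final solvent <10%. Seeded agar trays used saline-suspended cells adjusted to 20-35% transmittancy.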

Bacillus subtilis = assay: agar plate paper-disc inhibition zone screening; assay type: cell-based; conditions: read-out: Inhibition Zone Diameter mm (Dose mg/ml) B. Subtilis; for zone of inhibition at 3000 µg/mL: Dose 3.0 mg/ml; for zone of inhibition at 1000 µg/mL: Dose 1.0 mg/ml
Method in brief: as §1

Escherichia coli = assay: agar plate paper-disc inhibition zone screening; assay type: cell-based; conditions: read-out: Inhibition Zone Diameter mm (Dose mg/ml) E. Coli; for zone of inhibition at 3000 µg/mL: Dose 3.0 mg/ml; for zone of inhibition at 500 µg/mL: Dose 0.5 mg/ml
Method in brief: as §1

Streptococcus faecalis = assay: agar plate paper-disc inhibition zone screening; assay type: cell-based; conditions: Enterococcus faecalis; Dose 3.0 mg/ml; read-out: Inhibition Zone Diameter mm (Dose mg/ml) S. Faecalis
Method in brief: as §1

Penicillium avellaneum = assay: agar plate paper-disc inhibition zone screening; assay type: cell-based; conditions: Hamigera avellanea; Dose 3.0 mg/ml; read-out: Inhibition Zone Diameter mm (Dose mg/ml) P. Avellaneum
Method in brief: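 Mycelia and spores from a six-day 28°C agar culture, suspended in saline with 0.05% Tween 80 at 20% transmittancy, were seeded into molten agar trays. Compounds at 3,000, 1,000, 500, 100 and 10 mcg/ml (solvent <10%) were applied on 12.7 mm paper discs. After at least 20-24 h incubation, inhibition zone diameter was measured in mm.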

[2] = test system: lymphocytic leukemia P388; assay: in vivo lymphocytic leukemia P388 test; parameters: species or system mice; conditions: Mus musculus, P388, ip, 720 h, two single doses four days apart, read-out: T/C × 100 (Percent); for response vs control in vivo at 12.5 mg/kg: P388, Dose 12.5 mg/kg intraperitoneally; for response vs control in vivo at 25 mg/kg: P388, Dose 25 mg/kg intraperitoneally; for response vs control in vivo at 50 mg/kg: P388, Dose 50 mg/kg intraperitoneally; for response vs control in vivo at 100 mg/kg: P388, Dose 100 mg/kg intraperitoneally; for response vs control in vivo at 6.25 mg/kg: P388, Dose 6.25 mg/kg intraperitoneally; for response vs control in vivo at 3.12 mg/kg: P388, Dose 3.12 mg/kg intraperitoneally
Method in brief: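 Efficacy was judged from the treated/control survival-time ratio over 30 days (T/C×100 >125% as criterion). Mice (CD2F, 6–7/group) received i.p. P388 ascites cells, then compound i.p. at varied doses twice, four days apart.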

SMILES	IC50 [1]	zone of inhibition at 3000 µg/mL (Bacillus subtilis)	zone of inhibition at 3000 µg/mL (Streptococcus faecalis)	zone of inhibition at 3000 µg/mL (Penicillium avellaneum)	response vs control in vivo at 12.5 mg/kg [2]	response vs control in vivo at 25 mg/kg [2]	further results
CN(C)CCNc1ccc2c3c(nn2CCO)-c2c(O)ccc(O)c2C(=O)c13 [7,10-(OH)2; (CH2)2OH·HCl; NH(CH2)2NMe2]	170 nM						
NCCn1nc2c3c(c(NCCCNCCO)ccc31)C(=O)c1c(O)ccc(O)c1-2	280 nM						
CN(CCO)CCn1nc2c3c(c(NCCNCCO)ccc31)C(=O)c1c(O)ccc(O)c1-2	450 nM						
CN(C)CCn1nc2c3c(c(NCCNCCO)ccc31)C(=O)c1c(O)ccc(O)c1-2	180 nM						
CN(C)CCCn1nc2c3c(c(NCCCN)ccc31)C(=O)c1c(O)ccc(O)c1-2 [7,10-(OH)2; (CH2)3NMe2·2HCl; NH(CH2)3NH2]	350 nM						
CN1CCN(c2ccc3c4c(nn3CCNCCO)-c3c(O)ccc(O)c3C(=O)c24)CC1	540 nM						
O=C1c2cccc(O)c2-c2nn(CCNCCO)c3ccc(NCCNCCO)c1c23	1100 nM						
CCN(CC)CC(O)Cn1nc2c3c(c(NCCN)ccc31)C(=O)c1c(O)ccc(O)c1-2 (stereo not shown)	460 nM						
NCCNc1ccc2c3c(nn2CCN)-c2c(O)ccc(O)c2C(=O)c13 [7,10-(OH)2; (CH2)2NH2·2HCl; NH(CH2)2NH2]	910 nM						
CCN(CC)CCn1nc2c3c(c(NCCNC)ccc31)C(=O)c1c(O)ccc(O)c1-2	120 nM						
NCCCNc1ccc2c3c(nn2CCN)-c2c(O)ccc(O)c2C(=O)c13	850 nM						
NCCCCCNc1ccc2c3c(nn2CCNCCO)-c2c(O)ccc(O)c2C(=O)c13 [Example 60, 5-[(5-Aminopentyl)amino]-7,10-dihydroxy-2-[2-[(2-hydroxyethyl)amino]ethyl]anthra[1,9-cd]pyrazol-6(2H)-one]		0 mm	0 mm	0 mm	127%	127%	zone of inhibition at 3000 µg/mL (Aerobacter aerogenes): 0 mm; zone of inhibition at 3000 µg/mL (Escherichia coli): 14 mm; response vs control in vivo at 50 mg/kg [2]: 127%; response vs control in vivo at 100 mg/kg [2]: 150%
NCCNc1ccc2c3c(nn2CCO)-c2c(O)ccc(O)c2C(=O)c13 [Example 37, 5-[(2-Aminoethyl)amino]-7,10-dihydroxy-2-(2-hydroxyethyl)anthra[1,9-cd]pyrazol-6(2H)-one]			0 mm	0 mm	145%	146%	zone of inhibition at 1000 µg/mL (Aerobacter aerogenes; Dose 1.0 mg/ml): 15 mm; zone of inhibition at 1000 µg/mL (Bacillus subtilis): 15 mm; zone of inhibition at 3000 µg/mL (Escherichia coli): 0 mm; response vs control in vivo at 6.25 mg/kg [2]: 135%; response vs control in vivo at 50 mg/kg [2]: 162%
O=C1c2c(O)ccc(O)c2-c2nn(CCNCCO)c3ccc(NCCCNCCO)c1c23 [Example 62, 7,10-Dihydroxy-2-[2-[(2-hydroxyethyl)amino]ethyl]-5-[[3-[(2-hydroxyethyt)amino]propyl]amino]anthra[1,9-cd] pyrazol-6(2H)-one]			14 mm	0 mm			zone of inhibition at 500 µg/mL (Aerobacter aerogenes): 14 mm; zone of inhibition at 1000 µg/mL (Bacillus subtilis): 16 mm; zone of inhibition at 500 µg/mL (Escherichia coli): 14 mm; response vs control in vivo at 3.12 mg/kg [2]: 173%
COCCn1nc2c3c(c(NCCNCCO)ccc31)C(=O)c1c(O)ccc(O)c1-2 [Example 76, 7,10-Dihydroxy-5-[[2-[(2-hydroxyethyl)amino]ethyl]amino]-2-(2-methoxyethyl)anthra[1,9-cd]pyrazol-6(2H)-one]		14 mm	0 mm	0 mm	127%	127%	zone of inhibition at 3000 µg/mL (Aerobacter aerogenes): 14 mm; zone of inhibition at 1000 µg/mL (Escherichia coli; Dose 1.0 mg/ml): 14 mm; response vs control in vivo at 50 mg/kg [2]: 135%; response vs control in vivo at 100 mg/kg [2]: 139%
CN(C)CCn1nc2c3c(c(NCCCN)ccc31)C(=O)c1c(O)ccc(O)c1-2 [7,10-(OH)2; (CH2)2NMe2·2HCl; NH(CH2)3NH2]	1100 nM						
CN(C)CCn1nc2c3c(c(NCCN)ccc31)C(=O)c1c(O)ccc(O)c1-2 [7,10-(OH)2; (CH2)2NMe2·2HCl; NH(CH2)2NH2]	140 nM						
CCN(CC)CCn1nc2c3c(c(NCCNC)ccc31)C(=O)c1c(O)ccc(O)c1-2 [Example 31, 2-[2-(Diethylamino)ethyl]-7,10-dihydroxy-5-[[2-(methylamino)ethyl]amino]anthra[1,9-cd]pyrazol-6(2H)-one]			14 mm	0 mm	191%	219%	zone of inhibition at 500 µg/mL (Aerobacter aerogenes): 16 mm; zone of inhibition at 1000 µg/mL (Bacillus subtilis): 17 mm; zone of inhibition at 500 µg/mL (Escherichia coli): 16 mm; response vs control in vivo at 3.12 mg/kg [2]: 154%; response vs control in vivo at 6.25 mg/kg [2]: 163%; response vs control in vivo at 50 mg/kg [2]: 172%
CN(C)CCN(C)c1ccc2c3c(nn2CCNCCO)-c2c(O)ccc(O)c2C(=O)c13 [Example 65, 5-([2-(Dimethylamino)ethyl]methylamino]-7,10-dihydroxy-2-[2-[(2-hydroxyethyl)amino]ethyl]anthra[1,9-cd]pyrazol-6(2H)-one]		0 mm	0 mm	0 mm	188%		zone of inhibition at 500 µg/mL (Aerobacter aerogenes): 16 mm; zone of inhibition at 3000 µg/mL (Escherichia coli): 15 mm; response vs control in vivo at 6.25 mg/kg [2]: 179%
CN(C)CCCn1nc2c3c(c(NCCCN)ccc31)C(=O)c1c(O)ccc(O)c1-2 [Example 47, 5-[(3-Aminopropyl)amino]-2-[3-(dimethylamino)propyl]-7,10-dihydroxyanthra[1,9-cd]pyrazol-6(2H)-one]		14 mm	0 mm	0 mm	173%	194%	zone of inhibition at 3000 µg/mL (Aerobacter aerogenes): 14 mm; zone of inhibition at 3000 µg/mL (Escherichia coli): 14 mm
CN(C)CCNc1ccc2c3c(nn2CCO)-c2c(O)ccc(O)c2C(=O)c13 [Example 39]		0 mm	14 mm	0 mm	124%	153%	zone of inhibition at 500 µg/mL (Aerobacter aerogenes): 15 mm; zone of inhibition at 3000 µg/mL (Escherichia coli): 0 mm; response vs control in vivo at 50 mg/kg [2]: 180%; response vs control in vivo at 100 mg/kg [2]: 225%
CCN(CC)CCNc1ccc2c3c(nn2CC(O)CN(CC)CC)-c2c(O)ccc(O)c2C(=O)c13 (stereo not shown) [Example 44]		15 mm	14 mm	0 mm	128%	131%	zone of inhibition at 3000 µg/mL (Aerobacter aerogenes): 14 mm; zone of inhibition at 500 µg/mL (Escherichia coli): 15 mm; response vs control in vivo at 50 mg/kg [2]: 131%
CN(C)CCn1nc2c3c(c(NCCCN)ccc31)C(=O)c1c(O)ccc(O)c1-2 [Example 34, 5-[(3-Aminopropyl)amino]-2-[2-(dimethylamino)ethyl]-7,10-dihydroxyanthra[1,9-cd]pyrazol-6(2H)-one]		0 mm	0 mm	0 mm	205%		zone of inhibition at 3000 µg/mL (Aerobacter aerogenes): 14 mm; zone of inhibition at 3000 µg/mL (Escherichia coli): 15 mm; response vs control in vivo at 6.25 mg/kg [2]: 196%
